The target in test [1] is T1, human P2Y12 receptor (Homo sapiens, UniProt Q9H244).
T1 construct: host or cells: CHO-PK1 cells (so in the source)
Put plainly: β-arrestin recruitment assay at P2Y12 receptor. The class given is cell-based. To be noted: CHO-PK1 cells; for pIC50: 2-methylthio-ADP as agonist at EC80 (3 μM), read-out: Inhibition P2Y12 receptor IC50; for pEC50: read-out: Activation P2Y12 receptor EC50. The text has this:
The interaction of 2 with the human P2Y12 receptor was investigated in a β-arrestin recruitment assay using the galactosidase complementation technology as previously described.^25-27 The human P2Y12 receptor was expressed in CHO-PK1 cells (Eurofins DiscoverX, Fremont, CA, USA). For results see Table 2 and Table 3.
A general note: Recruitment of arrestin is a read-out of receptor activation apart from second messengers.

Test [2] deals with T2, human NTPDase3 (Homo sapiens, UniProt O75355).
T2 sequence (O75355 1-529): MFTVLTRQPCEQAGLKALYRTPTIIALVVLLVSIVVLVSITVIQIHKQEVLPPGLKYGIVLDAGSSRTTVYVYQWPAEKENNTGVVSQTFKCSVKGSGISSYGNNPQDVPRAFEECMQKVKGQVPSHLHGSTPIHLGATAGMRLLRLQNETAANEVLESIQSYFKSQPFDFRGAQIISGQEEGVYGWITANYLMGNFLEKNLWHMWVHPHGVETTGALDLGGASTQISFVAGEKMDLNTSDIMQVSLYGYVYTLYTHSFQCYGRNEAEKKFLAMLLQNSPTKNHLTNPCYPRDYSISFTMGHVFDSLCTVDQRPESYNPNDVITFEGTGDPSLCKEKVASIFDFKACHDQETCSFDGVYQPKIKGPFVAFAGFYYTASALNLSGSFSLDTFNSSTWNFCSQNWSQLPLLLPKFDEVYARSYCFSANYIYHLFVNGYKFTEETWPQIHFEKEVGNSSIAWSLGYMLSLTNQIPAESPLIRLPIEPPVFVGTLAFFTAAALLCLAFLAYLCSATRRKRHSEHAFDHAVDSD
In words: Capillary electrophoresis assay for human NTPDase3. It counts as biochemical. Conditions: ATP (100 μM) as substrate. How it is done:
(§1) Inhibitory activity of the CD73 inhibitors 2 and 20 at human NTPDases 1, 2, 3, and 8 was investigated using ATP (100 μM) as a substrate according to previously published procedures.^24 ATP and 2 were co-incubated with recombinantly expressed human NTPDases at 37° C. for 30 min, and the enzymatic reaction was terminated by heating at 90° C. for 10 min. The amount of enzyme preparation was adjusted to ensure 10-20% of substrate conversion. The formed products were separated by capillary electrophoresis (CE) and individually quantitated by diode array detection (DAD) at a wavelength of 260 nm. For inhibition analysis, at least three independent experiments were performed each in triplicate. The inhibition of the enzyme activity was calculated in relation to the positive control without inhibitor and plotted by GraphPad Prism 8 software (GraphPad software, San Diego, CA, USA) (for results see Table 2 and Table 3).
(§2) Test compounds were investigated at a concentration of 50 μM, and 100 μM ATP substrate according to published procedures.^24 Recombinantly expressed human NTPDases were employed. The amount of enzyme preparation was adjusted to ensure 10-20% of substrate conversion. […] The inhibition of the enzyme activity was calculated in relation to the positive control without inhibitor and plotted in GraphPad Prism 8 software (GraphPad software, San Diego, CA, USA). […]

Test [3] deals with T3, human NTPDase8 (Homo sapiens, UniProt Q5MY95).
T3 sequence (Q5MY95 1-495): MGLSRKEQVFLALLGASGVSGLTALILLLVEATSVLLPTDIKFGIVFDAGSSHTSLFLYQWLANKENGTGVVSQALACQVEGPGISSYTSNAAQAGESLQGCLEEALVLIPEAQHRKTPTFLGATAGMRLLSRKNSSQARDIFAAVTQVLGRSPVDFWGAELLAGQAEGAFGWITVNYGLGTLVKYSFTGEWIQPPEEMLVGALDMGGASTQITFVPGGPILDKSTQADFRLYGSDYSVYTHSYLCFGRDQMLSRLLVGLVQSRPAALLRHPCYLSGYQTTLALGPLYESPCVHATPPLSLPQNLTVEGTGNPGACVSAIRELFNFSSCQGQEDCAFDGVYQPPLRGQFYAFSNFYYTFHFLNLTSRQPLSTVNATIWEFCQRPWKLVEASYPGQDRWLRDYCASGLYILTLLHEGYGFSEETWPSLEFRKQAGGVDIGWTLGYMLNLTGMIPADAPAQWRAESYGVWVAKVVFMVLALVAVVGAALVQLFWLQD
Put plainly: Capillary electrophoresis assay for human NTPDase8. It counts as biochemical. Conditions: ATP (100 μM) as substrate. Here is the method: as §1, §2

The structures appear in SMILES notation. pEC50, pIC50: −log10 of the molar value.

A word on the pIC50: it is the IC50 on a negative log10 scale, so that one unit is a factor of ten. In general, pEC50 refers to −log10 of the EC50, conventionally taken in molar units.

T1 sequence (Q9H244 whole entry): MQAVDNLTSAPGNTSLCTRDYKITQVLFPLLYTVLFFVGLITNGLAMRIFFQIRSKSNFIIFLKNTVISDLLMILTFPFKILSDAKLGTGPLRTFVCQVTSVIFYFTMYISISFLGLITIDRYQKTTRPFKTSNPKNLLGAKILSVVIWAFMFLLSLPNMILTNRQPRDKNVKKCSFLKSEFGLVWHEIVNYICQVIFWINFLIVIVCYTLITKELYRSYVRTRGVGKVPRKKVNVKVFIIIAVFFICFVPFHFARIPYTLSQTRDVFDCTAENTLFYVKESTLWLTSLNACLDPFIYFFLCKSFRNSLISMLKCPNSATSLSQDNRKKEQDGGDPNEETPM

In the case of `CCCN(Cc1ccc(-c2cn(CCF)nn2)cc1)c1nc(Cl)nc2c1ncn2[C@@H]1O[C@H](COP(=O)(O)CP(=O)(O)O)C(O)C1O` (some centres unmarked) [Compound 2], the pIC50 in test [1] is under 5.00; in test [2], under 4.30; in test [3], under 4.30. Further, in test [1], the pEC50 is under 5.00.

On to `O=C(NCCCCCCNC(=O)c1ccc2c(c1)C1(OC2=O)c2ccc(O)cc2Oc2cc(O)ccc21)c1ccc(CNc2nc(Cl)nc3c2ncn3[C@@H]2O[C@H](COP(=O)(O)CP(=O)(O)O)[C@@H](O)[C@H]2O)cc1` [Compound 20, (((((2R,3S,4R,5R)-5-(2-chloro-6-((4-((6-(3′,6′-dihydroxy-3-oxo-3H-spiro[isobenzofuran-1,9′-xanthene]-6-carboxamido)-hexyl)carbamoyl)benzyl)amino)-9H-purin-9-yl)-3,4-dihydroxytetrahydrofuran-2-yl)methoxy)(hydroxy)phosphoryl)methyl)phosphonic acid], for which the values for the pIC50 in test [1], in test [2] and in test [3] were under 5.00, 4.56 and over 4.30, respectively. Further, the pEC50 in test [1] is under 5.00.

These data come from patent US20250382322A1, “DIAGNOSTICS FOR DETECTING ECTO-5'-NUCLEOTIDASE (CD73)” (EBERHARD KARLS UNIVERSITÄT TÜBINGEN, priority 2022, published 2025).
